These results are taken from patent US9265253B2, “Use of macrocyclic picolinamides as fungicides” (DOW AGROSCIENCES LLC, priority 2013, dated 2016).

For orientation: melting point means the temperature of the solid-liquid transition.

In data set [1] the test system is Mycosphaerella graminicola; Anamorph: Septoria tritici. The data set is described as follows: Leaf Blotch of Wheat (SEPTTR) disease control. Particulars: Zymoseptoria tritici; for pest or weed control at 100 ppm: rate 100 ppm; for pest or weed control at 121.5 g/ha: rate 121.5 g/H. It is filed as in vivo. The gist of the method:
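Seedlings of variety Yuma grew until the first leaf fully emerged. Fungicide solution (acetone/water with Triton X-100) was sprayed to run-off; plants were inoculated with S. tritici spores before or after spraying, held one day dark and two to three days lit at 100% humidity, then kept at 20° C.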

Data set [2] relates to Puccinia triticina; Synonym: Puccinia recondite f. Sp. Tritici. The data set is described as follows: Wheat Brown Rust (PUCCRT) disease control. In kind it is in vivo. Conditions: Puccinia triticina, topical; for pest or weed control at 100 ppm: rate 100 ppm; for pest or weed control at 121.5 g/ha: rate 121.5 g/H. In a few lines: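 Brown rust on first-leaf Yuma wheat: spore inoculation before or after spray application (acetone/Triton X-100 solution, or EC with Trycol in track spray), overnight 100% RH at 22 °C, disease developed at 24 °C. Severity scored 0–100% and converted to percent control against untreated.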

The mark [3] stands for this setting: 24 h, 1 Day Protectant, read-out: SEPTTR 1 DP disease control.
Where [4] appears, read: 72 h, 3 Day Curative, read-out: SEPTTR 3 DC disease control.
[5] abbreviates: 24 h, 1 Day Protectant, read-out: PUCCRT 1 DP disease control.
Where [6] appears, read: 72 h, 3 Day Curative, read-out: PUCCRT 3 DC disease control.

Read-outs that look alike come from different tables or passages of the source.

As for `CCOCC(=O)OCOc1c(OC)ccnc1C(=O)N[C@H]1CCC[C@H](Cc2ccc(C)cc2)[C@@H](OCC2CC2)[C@H](C)OC1=O` [Compound F180], the melting point fell in the range of 50 to 55 °C. In addition, in data set [1] (setting [3]), the pest or weed control at 100 ppm was in the range of 80 to 100% and the pest or weed control at 121.5 g/ha fell in the range of 80 to 100%. In addition, in data set [1] (setting [4]), the pest or weed control at 100 ppm was 80 to 100% and the pest or weed control at 121.5 g/ha lay within 80 to 100%. In addition, in data set [2] (setting [5]), the pest or weed control at 100 ppm lay within 80 to 100% and the pest or weed control at 121.5 g/ha was in the range of 80 to 100%. In addition, in data set [2] (setting [6]), the pest or weed control at 100 ppm lay within 80 to 100% and the pest or weed control at 121.5 g/ha is 0 to 80%.

Molecule `COc1ccnc(C(=O)N[C@H]2CCC[C@H](Cc3ccc(F)cc3F)[C@@H](OC(=O)c3ccco3)[C@H](C)OC2=O)c1O` [Compound F60] returned a melting point of 93 to 97 °C. In data set [1] (setting [3]), the pest or weed control at 100 ppm lay in the range of 80 to 100% and the pest or weed control at 121.5 g/ha was 80 to 100%. The pest or weed control at 100 ppm in data set [1] (setting [4]) lay in the range of 80 to 100%. In data set [2] (setting [5]), the pest or weed control at 100 ppm fell in the range of 80 to 100% and the pest or weed control at 121.5 g/ha lay in the range of 80 to 100%. The pest or weed control at 100 ppm in data set [2] (setting [6]) fell in the range of 80 to 100%.

For `COc1ccnc(C(=O)N[C@H]2CCC[C@H](Cc3ccc(C)cc3)[C@@H](Oc3ccccc3)[C@H](C)OC2=O)c1O` [Compound F49, 3-hydroxy-4-methoxy-N-((3S,7R,8R,9S)-9-methyl-7-(4-methylbenzyl)-2-oxo-8-phenoxyoxonan-3-yl)picolinamide], the melting point is 62 to 66 °C. Moreover, the pest or weed control at 100 ppm in data set [1] (setting [3]) lay within 80 to 100%. Moreover, the pest or weed control at 100 ppm in data set [1] (setting [4]) was in the range of 80 to 100%. Also, the pest or weed control at 100 ppm in data set [2] (setting [5]) was in the range of 80 to 100%. For the same molecule, the pest or weed control at 100 ppm in data set [2] (setting [6]) lay within 0 to 80%.

With `COc1ccnc(C(=O)N[C@H]2CCC[C@H](Cc3ccc(F)cc3F)[C@@H](OCCCc3ccccc3)[C@H](C)OC2=O)c1OCOC(C)=O` [Compound F141], the melting point lay within 40 to 45 °C. For the same molecule, in data set [1] (setting [3]), the pest or weed control at 100 ppm was 80 to 100% and the pest or weed control at 121.5 g/ha was in the range of 80 to 100%. In data set [1] (setting [4]), the pest or weed control at 100 ppm is 80 to 100% and the pest or weed control at 121.5 g/ha is 0 to 80%. Besides, in data set [2] (setting [5]), the pest or weed control at 100 ppm was 80 to 100% and the pest or weed control at 121.5 g/ha fell in the range of 80 to 100%. Also, the pest or weed control at 100 ppm in data set [2] (setting [6]) lay within 0 to 80%.
